One data set deals with MV4-11 AML SQ xenografts. It counts as in vivo, mouse. The conditions noted are these: MV4-11 xenograft, 5 mg/kg or 10 mg/kg orally once daily for 20 days. As for the experimental part: Human MV4-11 acute myeloid leukemia (AML) cancer cells (5×10^6) that have FLT-ITD mutations were resuspended in serum-free RPMI1640 medium and Matrigel (ration of 1:1) and subcutaneously injected into the flank of 5-6 weeks old female NOD/SCID/IL-2rg(ko)(NSG). When palpable tumor sizes reached at approximately 50 mm^3, mice were divided into three groups (vehicle=9, 5 mg/kg dose group=8, 10 dose mg/kg group=8). Then, S enantiomer was orally administered at 5 mg/kg or 10 mg/kg with vehicle (10% DMSO+30% Solutol+60% saline), once daily for 20 days. Tumor volumes were calculated by the formula 1/2a×b^2, where a is the long diameter, and b is the short diameter. Tumor volumes correlate with tumor weights. The statistical significance of group differences was analyzed using a Student's t-test with the two-tailed distribution. P values less than 0.05 were considered statistically significant.

The subject of another data set is MOLM-13 AML cells. Kind of data set: MTS cell viability assay. It counts as cell-based. The protocol:
IC50 Determinations for Ovarian, Liver, Pancreatic, CML, AML Cancer Cell Lines (See e.g. FIGS. 4, 6A-6C, 21, 22A, 22B, 23, 24A-24C, 25A, 25B and 34): MTS assays were performed for cell viability. SKOV3 ovarian cancer, Huh-7 hepatocellular carcinoma, MIA-PaCa2 pancreatic cancer, KCL-22 CML, T315I mutant KCL-22 CML, MOLM-13 AML and MV4-11 AML cells were seeded in 96-well plates (5000 cells/well for solid tumors, 10000 cells/well for blood tumors), incubated overnight at 37° C. in 5% CO2, and exposed to racemic ETP69 or S enantiomer in a dose-dependent manner for 48 h. Dimethyl sulfoxide (DMSO) was used as the vehicle control. Viable cell numbers were determined by tetrazolium conversion to its formazan dye and absorbance was measured at 490 nm using an automated ELISA plate reader. Each experiment was performed in quadruplicate.

As to `CN1C(=O)[C@@]23C[C@](C)(C#N)[C@H](c4ccc5c(c4)OCO5)N2C(=O)[C@]1(C)SS3` (single isomer, unassigned) [ETP417], in the data set on MV4-11 AML SQ xenografts, the toxicity symptoms result was “no observable toxicity symptoms”.

Regarding `CN1C(=O)[C@@]23C[C@](C)(C#N)[C@H](c4ccc5c(c4)OCO5)N2C(=O)[C@]1(C)SS3` [(S) enantiomer of ETP69, (3S,6S,7S,8aS)-6-(benzo[d][1,3]dioxol-5-yl)-2,3,7-trimethyl-1,4-dioxohexahydro-6H-3,8a-epidithiopyrrolo[1,2-a]pyrazine-7-carbonitrile], in the data set with MOLM-13 AML cells, the “increase in inhibitory capacity when compared to the (R) enantiomer” value is given as about 4 fold.
